Read-outs that look alike come from different tables or passages of the source.
How the values were obtained:
[1] = tested on: prolactin secretion; test: Anti-prolactin activity: egg-nidation inhibition in rats; format: in vivo, rat (Sprague Dawley); conditions: Rattus norvegicus, po, 120 h, read-out: Nidation inhibition in rats ED50
Description: The prolactin secretion inhibitory action of the compounds has been indirectly evaluated by determining the egg-nidation inhibitory action in rats. For the ergoline derivatives this activity is considered to be correlated with the anti-prolactin activity (E. FLUCKIGER and E. DEL POZO,Handb. exp. Pharmac. 49, 615, 1978), since prolactin is the only hypophysial hormone involved in the maintenance of the first part of pregnancy in rats (W. K. MORISHIGE and I. ROTHCHILD, Endocrinology 95, 260, 1974).
Pregnant Sprague Dawley rats weighing 200-250 g were used. The compounds to be tested, dissolved in diluted mineral acids, were administered orally to groups from six to eight rats on day 5 of pregnancy. The animals were sacrificed on day 14 and the uteri were examined. The absence of implantation sites was taken as the criterion of anti-prolactin activity. Several doses were tested for the ED50 evaluation. As reference standard Bromocriptine was used.

[2] = Emetic activity in dogs; conditions: dog, in vivo, po, observed for 6 hours; read-out: Emetic activity in dogs ED50
Description: The emetic activity of the compounds was investigated by oral administration to male beagle dogs weighing 15-20 kg. […] Four to six animals per dose were employed for the ED50 evaluation. […] The emetic activity of the compounds is similar or lower than that of Bromocriptine. The ratio between activity and tolerance of the new ergoline derivatives accordingly is very high.

[3] = tested on: mice; test: Acute toxicity: orientative toxicity in mice; format: in vivo, mouse; conditions: per os, observed for seven days
Description: The male mice for each group were orally treated with drugs at different dose levels for the determination of orientative toxicity.

[4] = tested on: spontaneously hypertensive male rats, strain SHR; test: Anti-hypertensive activity: change in blood pressure (BP) in SHR rats; format: in vivo, rat; conditions: for Hypotensive activity vs Hydralazine: compound 25 mg/kg vs Hydralazine 5 mg/kg; for Tolerance on the 4th day: compound 25 mg/kg, unlike Hydralazine
Protocol: (§1) Four spontaneously hypertensive male rats, strain SHR, weighing 250-300 g for each group were used. The animals were treated once a day for four consecutive days. Drugs were administered by gastric gavage, suspended in 5% gum arabic (0.2 ml/100 g body weight) and blood pressure (BP) and heart rate (HR) were measured by indirected tail/cuff method (BP Recorder W+W). Blood pressure and heart rate were measured on the first and fourth days of treatment 1 hour before and 1 and 5 hours after drug administration. Hydralazine and α-methyl-Dopa were used as reference drugs.

[5] = tested on: spontaneously hypertensive male rats, strain SHR; test: Change in heart rate (HR) in SHR rats; format: in vivo, rat
Protocol: as §1

[6] = tested on: mice; conditions: per os, data of LD50 from the literature; cited from earlier work
[7] = 5 mg/kg os, 1st day, 1 hour after dosing
[8] = 5 mg/kg os, 1st day, 5 hours after dosing
[9] = 5 mg/kg os, 4th day, 1 hour after dosing
[10] = 5 mg/kg os, 4th day, 5 hours after dosing
[11] = 25 mg/kg os, 1st day, 1 hour after dosing
[12] = 25 mg/kg os, 1st day, 5 hours after dosing
[13] = 25 mg/kg os, 4th day, 1 hour after dosing
[14] = 25 mg/kg os, 4th day, 5 hours after dosing
[15] = 30 mg/kg os, 1st day, 1 hour after dosing
[16] = 30 mg/kg os, 1st day, 5 hours after dosing
[17] = 30 mg/kg os, 4th day, 1 hour after dosing
[18] = 30 mg/kg os, 4th day, 5 hours after dosing
[19] = 100 mg/kg os, 1st day, 1 hour after dosing
[20] = 100 mg/kg os, 1st day, 5 hours after dosing
[21] = 100 mg/kg os, 4th day, 1 hour after dosing
[22] = 100 mg/kg os, 4th day, 5 hours after dosing

Compound: CC(C)C[C@H]1C(=O)N2CCC[C@H]2[C@]2(O)O[C@](NC(=O)[C@@H]3C=C4c5cccc6[nH]c(Br)c(c56)C[C@H]4N(C)C3)(C(C)C)C(=O)N12 [2-bromo-α-ergocryptine, reference compound]
- ED50 [1]: 5.7 mg/kg
- TD50 at 6 h [2]: 0.01 to 0.02 mg/kg

Compound: CCCN1C[C@H](C(=O)N(C(=O)NC(C)C)C(C)C)C[C@@H]2c3cccc4[nH]cc(c34)C[C@H]21 [Example 5, 1,3-diisopropyl-3-(6'-n-propylergoline-8'β-carbonyl)-urea]
- ED50 ([1]; p.o., day 5 of pregnancy): 0.02 mg/kg
- TD50 at 6 h [2]: 0.01 mg/kg

Compound: CN1C[C@H](C(=O)N(C(=O)NC2CCCCC2)C2CCCCC2)C[C@@H]2c3cccc4[nH]cc(c34)C[C@H]21 [Example 7, 1,3-dicyclohexyl-3-(6'-methylergoline-8'β-carbonyl)urea]
- Orientative toxicity in mice [3]: > 800 mg/kg
- Effect on BP (in words) ([4]; 5 mg/kg): the antihypertensive effect was less remarkable
- Change in BP [4, 7]: -12 mmHg
- Change in BP [4, 8]: -10 mmHg
- Change in BP [4, 9]: -15 mmHg
- Change in BP [4, 10]: -7 mmHg
- Change in BP [4, 11]: -30 mmHg
- Change in BP [4, 12]: -57 mmHg
- Change in BP [4, 13]: -30 mmHg
- Change in BP [4, 14]: -10 mmHg
- Effect on BP (in words) ([4]; 25 mg/kg, 1st and 4th days): significant decrease BP
- Hypotensive activity vs Hydralazine [4]: comparable to that of Hydralazine
- Tolerance on the 4th day [4]: no tolerance on the 4th day
- Change in HR [5, 7]: 0 beats/minute
- Change in HR [5, 8]: -10 beats/minute
- Change in HR [5, 9]: 0 beats/minute
- Change in HR [5, 10]: 0 beats/minute
- Change in HR [5, 11]: +5 beats/minute
- Change in HR [5, 12]: -20 beats/minute
- Change in HR [5, 13]: -17 beats/minute
- Change in HR [5, 14]: -2 beats/minute

Compound: CO[C@]12C[C@@H](C(=O)N(C(=O)NC3CCCCC3)C3CCCCC3)CN(C)[C@@H]1Cc1c[nH]c3cccc2c13 [Example 9, 1,3-dicyclohexyl-3-(10'α-methoxy-6'-methylergoline-8'β-carbonyl)-urea]
- Orientative toxicity in mice [3]: > 800 mg/kg
- Change in BP [4, 11]: -30 mmHg
- Change in BP [4, 12]: -37 mmHg
- Change in BP [4, 13]: -5 mmHg
- Change in BP [4, 14]: -23 mmHg
- Effect on BP (in words) ([4]; 25 mg/kg, 1st day): marked decrease of BP
- Effect on BP (in words) ([4]; 25 mg/kg, 4th day, first hour after dosing): the hypotensive effect was still observed on the fourth day even if less remarkable
- Hypotensive activity vs Hydralazine [4]: comparable to that of Hydralazine
- Tolerance on the 4th day [4]: no tolerance on the 4th day
- Change in HR [5, 11]: -20 beats/minute
- Change in HR [5, 12]: -10 beats/minute
- Change in HR [5, 13]: 0 beats/minute
- Change in HR [5, 14]: -20 beats/minute

Compound: CO[C@]12C[C@@H](C(=O)N(C(=O)NC3CCCCC3)C3CCCCC3)CN(C)[C@@H]1Cc1cn(C)c3cccc2c13 [Example 10, 1,3-dicyclohexyl-3-(10'α-methoxy-1',6'-dimethylergoline-8'β-carbonyl)-urea]
- Orientative toxicity in mice [3]: > 800 mg/kg
- Change in BP [4, 7]: -11 mmHg
- Change in BP [4, 8]: -22 mmHg
- Change in BP [4, 9]: -15 mmHg
- Change in BP [4, 10]: -16 mmHg
- Change in BP [4, 11]: -26 mmHg
- Change in BP [4, 12]: -41 mmHg
- Change in BP [4, 13]: -51 mmHg
- Change in BP [4, 14]: -40 mmHg
- Hypotensive activity vs Hydralazine [4]: comparable to that of Hydralazine
- Tolerance on the 4th day [4]: no tolerance on the 4th day
- Effect on BP (in words) ([4]; os, all tested doses of the compound): a decrease of BP was observed; this effect was long lasting
- Change in HR [5, 7]: -5 beats/minute
- Change in HR [5, 8]: -20 beats/minute
- Change in HR [5, 9]: -20 beats/minute
- Change in HR [5, 10]: +15 beats/minute
- Change in HR [5, 11]: -2 beats/minute
- Change in HR [5, 12]: -12 beats/minute
- Change in HR [5, 13]: -17 beats/minute
- Change in HR [5, 14]: -20 beats/minute

Compound: CCNC(=O)N(CCCN(C)C)C(=O)[C@@H]1C[C@@H]2c3cccc4[nH]cc(c34)C[C@H]2N(C)C1 [Example 13, 1-ethyl-3-(3'-dimethylaminopropyl)-3(6'-methylergoline-8'β-carbonyl)-urea]
- ED50 [1]: 0.3 mg/kg
- TD50 at 6 h [2]: 0.01 mg/kg

Compound: C=CCN1C[C@H](C(=O)N(C(=O)NC2CCCCC2)C2CCCCC2)C[C@@H]2c3cccc4[nH]cc(c34)C[C@H]21 [Example 15, 1,3-dicyclohexyl-3-(6'-allylergoline-8'β-carbonyl)-urea]
- Orientative toxicity in mice [3]: > 800 mg/kg
- Change in BP [4, 11]: -35 mmHg
- Change in BP [4, 12]: -27 mmHg
- Change in BP [4, 13]: -47 mmHg
- Change in BP [4, 14]: -38 mmHg
- Effect on BP (in words) ([4]; 25 mg/kg, 1st and 4th days): decrease in BP both on the 1st and 4th days of treatment but more pronounced on the 4th day
- Hypotensive activity vs Hydralazine ([4]; 4th day): much more remarkable
- Hypotensive activity vs Hydralazine ([4]; first day): comparable to that of Hydralazine
- Change in HR [5, 11]: -20 beats/minute
- Change in HR [5, 12]: -20 beats/minute
- Change in HR [5, 13]: -27 beats/minute
- Change in HR [5, 14]: -10 beats/minute

Compound: C=CCN1C[C@H](C(=O)N(CCCN(C)C)C(=O)NCC)C[C@@H]2c3cccc4[nH]cc(c34)C[C@H]21 [Example 19, 1-ethyl-3-(3'-dimethylaminopropyl)-3-(6'-allylergoline-8'βcarbonyl)-urea]
- ED50 ([1]; p.o., day 5 of pregnancy): 0.03 mg/kg
- TD50 at 6 h [2]: 0.02 mg/kg

Compound: CCCN1C[C@H](C(=O)N(CCCN(C)C)C(=O)NCC)C[C@@H]2c3cccc4[nH]cc(c34)C[C@H]21 [Example 21, 1-ethyl-3-(3'-dimethylaminopropyl)-3-(6'-n-propylergoline-8'β-carbonyl)-urea]
- ED50 ([1]; p.o., day 5 of pregnancy): 0.02 mg/kg
- TD50 at 6 h [2]: 0.02 to 0.04 mg/kg

Compound: C[C@](N)(Cc1ccc(O)c(O)c1)C(=O)O [α-methyl-Dopa, reference compound]
- LD50 (orientative toxicity column) [6]: 5300 mg/kg
- Change in BP [4, 15]: -10 mmHg
- Change in BP [4, 16]: -20 mmHg
- Change in BP [4, 17]: -10 mmHg
- Change in BP [4, 18]: 0 mmHg
- Change in BP [4, 19]: -10 mmHg
- Change in BP [4, 20]: -25 mmHg
- Change in BP [4, 21]: -20 mmHg
- Change in BP [4, 22]: -25 mmHg
- Change in HR [5, 15]: +35 beats/minute
- Change in HR [5, 16]: +40 beats/minute
- Change in HR [5, 17]: +45 beats/minute
- Change in HR [5, 18]: +30 beats/minute
- Change in HR [5, 19]: +70 beats/minute
- Change in HR [5, 20]: +40 beats/minute
- Change in HR [5, 21]: +50 beats/minute
- Change in HR [5, 22]: +10 beats/minute
- Effect on HR (in words) ([5]; SHR rats, os): increase of HR
